The experiment deals with ERK2 activation. Kind of experiment: Okadaic acid induced ERK2 phosphorylation/activation in SY5Y cells. Format: cell-based, human. Particulars: 1 μM okadaic acid; for IC50: Homo sapiens. The method, then: SKNSH-SY 5Y cells were plated on fibronectin-coated 6 well (30 mm^2) culture dishes (Biocoat®, Collaborative Biomedical Products, Inc.) and grown to confluence in 5 mL of 50% D-MEM/50% F-12 Nutrient Mixture (Ham) supplemented with 15% heat-inactivated bovine serum (JRH Bioscience), 0.1 mM non-essential amino acids solution, 2 mM glutamine and pen/strep/fungizone (GibcoBRL Life Technologies, Inc.). Cell culture medium was changed every 48 hours.
For drug testing, cells were routinely pretreated with inhibitors in 1 mL (30 mm2) for 60 min at concentrations of 30 nM, 100 nM, 300 nM, […]. Compound stocks were all at 10 mM in DMSO and dilutions were made in DMSO. Cells were then treated with 1 μM okadaic acid (ammonium salt; LC Laboratories, dissolved at 1 mM in DMSO) for 90 min. All experiments, including controls, contained a final concentration of between 0.5 and 1% DMSO.
Cells were detached from 30 mm^2 plates and suspended into 1 mL of ice-cold PBS by gentle trituration, transferred into microcentrifuge tubes and sedimented for 12 seconds at 14,000×g. […] Cell debris was removed by centrifugation at 14,000×g for 5 minutes at 4° C. and cell supernatants were analyzed by anti-ERK2 and anti-tau Western-blotting as described below.
[…] of total cell lysate was run on a 10% tris-glycine polyacrylamide gels (Novex, 1.5 mm×10 well) at 100 volts for 2.5 hors and Western-blotted on nitrocellulose (Novex) overnight at 23 volts or 1.5 hrs at 100V in transfer buffer [Towbin et al. Proc. Natl. Acad. Sci. USA 76, 4350-4354 (1979]) at 4° C. Blots were analyzed for ERK2 and phosphotyrosine immunoreactivity with anti-ERK1+2 (Z033; Zymed Laboratories, Inc.; 1:5,000) and anti-phosphotyrosine (4G10; Upstate Biotechnology Inc.; 1:1,000) mAbs. Blots were also analyzed for phosphorylation-sensitive Tau immuno-reactivity with mAb Tau-1 (Boehringer Mannheim; 1:5,000) and phosphorylation dependent mAb AT8 against FHF-tau (Biosource International; 1:200). Total Tau populations were detected by Tau-1 immunoblotting after treating blots for 16 hrs at 37° C. with 100 units/mL alkaline phosphatase (Gibco BRL) in 5 mL of 50 mM Tris-HCI (pH 8.5), 0.1 mM EDTA. All blots were developed using ECL (enhanced chemiluminescence) Western blotting protocol (Amersham Life Science) with horseradish peroxidase-linked sheep anti-mouse secondary antibody and analyzed on Kodak X-OMAT AR scientific imaging film. […] Changes in tau phosphorylation were assessed by normalizing densitometrically determined mAb Tau-1 immunoreactivities in cell extracts to Tau-1 reaction after dephosphorylation on the blot. […]

The mark [1] stands for this setting: SY5Y, means of triplicate determinations, read-out: Inhibition in SY5Y cells of ERK2 activation IC50.

Structures are written as SMILES. Like-named read-outs stand apart in the source and are kept apart here.

For the compound `COC(=O)[C@@]1(O)C[C@H]2C[C@@H]1n1c3ccccc3c3c4c(c5c6ccccc6n2c5c31)C(=O)NC4=O` (relative stereo) [CIII, 9,12-Methano-1H-diindolo[1,2,3-fg:3′,2′,1′-kl]pyrrolo[3,4-I][1,6] benzodiazocine-10-carboxylic acid, 2,3,9,10,11,12-hexahydro-10-hydroxy-1,3-dioxomethyl ester, (9α,10β,12α)], the IC50 by setting is: under setting [1], 5700 nM; (SY5Y cells, read-out: IC50 for prevention of okadaic acid induced ERK2 phosphorylation/activation (FIG. 4)) roughly 1000 nM. For the same compound, where the note is “SY5Y cells”, the “Concentration at which prevention of ERK2 phosphorylation/activation is complete” value came to 10 µM.
In the case of `CNC(=O)[C@]1(O)CC2CC1n1c3ccccc3c3c4c(c5c6ccccc6n2c5c31)C(=O)NC4=O` (stereo partly drawn) [CII, 9,12-Methano-1H-diindolo[1,2,3-fg:3′,2′,1′-kl]pyrrolo[3,4-I][1,6] benzodiazocine-10-carboxamide, 2,3,9,10,11,12-hexahydro-10-hydroxy-N-methyl-1,3-dioxo-(9α,10β,12α)], under setting [1], the IC50 worked out at 570 nM.
